Data set [1] concerns the target T1, human placental alkaline phosphatase (Homo sapiens, UniProt P05187).
T1 construct: purchased Sigma-Aldrich Canada Ltd
The data set is described as follows: Conversion of phosphate pro-drug by alkaline phosphatase in vitro. Type of data set: in vitro ADME. Conditions: 0.02 U/100 μL enzyme, 15 μM pro-drug, pH 7.4, within thirty minutes. On the procedure: The conversion into biologically active drug of phosphate pro-drugs by human placental alkaline phosphatase was measured in vitro using purified enzymes. Purified human placental alkaline phosphatase (Sigma-Aldrich Canada Ltd. Oakville, Ontario, Canada) was added at a concentration of 0.02 U/100 μL to a solution containing 15 μM of phosphate pro-drug, 20 mM Tris-HCl, pH 7.4 and 0.9% NaCl. The solutions were incubated for 10, 20 or 30 minutes. A solution containing 15 μM of phosphate pro-drug, 20 mM Tris-HCl, pH 7.4 and 0.9% NaCl was used a reference (time=0 minutes). To each solution, an equal volume (100 μL) of ice-cold acetonitrile was added, and then the mixture was vortexed and transferred to glass vials. A standard concentration curve of the pro-drug and the drug was prepared in 10 mM Tris-HCl, pH 7.4, 0.45% NaCl and 50% acetonitrile. All samples were immediately analyzed by LC/MS.

Data set [2] is described as follows: Solubility by filtration and LC/MS. It is filed as physicochemical. Conditions: in water (printed for Compound 74). As for the experimental part: To determine whether a compound is soluble in a solution, the solution was filtered on […] polytetrafluoroethylene filters (Whatman Inc. Clifton, N.J., USA) and the compound concentration in the filtrate was measured by LC/MS and compared to the expected concentration. If the concentration of the compound in the filtrate was equal +/−15% to the expected concentration, the compound was judged to be soluble in the solution.
The detection of Compound 74 or Compound 50 by LC/MS was carried out using the HPLC system that consisted of a Waters Alliance quaternary gradient HPLC pump (Waters, Milford, Mass., USA) and a ZQ2000 single quadrupole mass spectrometer (Waters, Milford, Mass., USA). The column used was XTerra MS C18: 50×2.1 mm, […] column at 20° C. Samples were injected and separated under the following conditions: The mobile phase “A” consisted of 5 mM ammonium formate, 0.1% formic acid in water and mobile phase “B” consisted of 5 mM ammonium formate, 0.1% formic acid in methanol. A linear gradient was applied as follows: 0 to 1 min, 94% “A” and 6% “B”; 1 to 4 min, 6% to 100% “B”; 4 to 8 min 100% “B”; 8 to 9 min, 100% “B” to 6% “B”; 9 to 12 min, 94% “A” and 6% “B”. […] Compounds were detected at m/z equal to their respective molecular weight plus 1.

Data set [3] deals with HMEC normal human mammary epithelial cells. The data set is described as follows: Cell viability, cellular ATP levels (Vialight HS). It is filed as cell-based. Conditions: Table 5, breast epithelial, ATP levels 72 h post-treatment. The source says:
(§1) The following cell lines were used: A549 human non-small cell lung carcinoma; C33A human cervical carcinoma; H1299 human non-small cell lung carcinoma; Hep-3B human hepatocellular carcinoma; MIA-Paca-2 human pancreatic carcinoma; PC-3 human prostatic adenocarcinoma (American Type Culture Collection, Manassas, Va., USA); HMEC normal human mammary epithelial cells; HUVEC normal human umbilical vein endothelial cells; and NHBE normal human bronchial epithelial cells (Cambrex Bio Science, Rockland, Me., USA). […] HMEC, HUVEC and NHBE cell lines were cultured in MEGM, EGM-2 and BEGM media, respectively (Cambrex Bio Science, Rockland, Me., USA). The cell lines were plated in 96-well microtitre plate at a density of 2–4×10^3 cells per well. After 16 hours, the cells were treated with various concentrations of Compound 50a or Compound 50b. Stock solutions of Compound 50a and Compound 50b, respectively, were prepared in dimethyl sulfoxide at a concentration of 5 mM. Serial dilutions were prepared in RPMI, 10% FBS and 2% DMSO and then added to the cells. The total DMSO in the cell cultures was 1%. […] The IC50s were determined using a best-fit sigmoidal dose response curve with variable slope.

The subject of data set [4] is NHBE normal human bronchial epithelial cells. The data set is described as follows: Cell viability, cellular ATP levels (Vialight HS). It is filed as cell-based. Conditions: Table 5, ATP levels 72 h post-treatment.
Excerpt: as §1

Data set [5] has as its system PC-3 human prostatic adenocarcinoma. The data set is described as follows: Cell viability, cellular ATP levels (Vialight HS). It is filed as cell-based. Conditions: Table 5, PC-3, prostate, tumor, ATP levels 72 h post-treatment.
Excerpt: as §1

For data set [6], the system named is MIA-Paca-2 human pancreatic carcinoma. Description: Cell viability, cellular ATP levels (Vialight HS). Conditions: Table 5, MIA-Paca-2, pancreas, tumor, ATP levels 72 h post-treatment. Type of data set: cell-based.
Excerpt: as §1

Data set [7] deals with A549 human non-small cell lung carcinoma. The data set is described as follows: Cell viability, cellular ATP levels (Vialight HS). Conditions: Table 5, A549, NSCL-adrenocarinoma, tumor, ATP levels 72 h post-treatment. It is filed as cell-based.
Excerpt: as §1

The subject of data set [8] is HUVEC normal human umbilical vein endothelial cells. Description: Cell viability, cellular ATP levels (Vialight HS). Type of data set: cell-based. Conditions: Table 5, ATP levels 72 h post-treatment.
Excerpt: as §1

Data set [9] relates to Hep-3B human hepatocellular carcinoma. Description: Cell viability, cellular ATP levels (Vialight HS). Type of data set: cell-based. Conditions: Hep3B, Table 5, liver, tumor, ATP levels 72 h post-treatment.
Excerpt: as §1

Data set [10] in a line: Body weight of SW480 tumor-bearing mice. Conditions: i.v. once daily for five days; 10 mg/kg (50, 50a, 50b), 50 mg/kg (74a). Type of data set: in vivo, CB17 SCID/SCID female mice. As for the experimental part:
(§2) SW480 cells were transplanted subcutaneously into the flank of female CB 17 SCID/SCID mice. Each mouse was inoculated with a suspension of 1×10^6 tumor cells per 100 μL on day zero. The following five treatment groups of ten mice each were used: (a) a negative control group treated with intravenous (i.v.) injection of vehicle, (b) a group treated with i.v. injection of a Compound 50, (c) a group treated with i.v. injection of a Compound 50a, (d) a group treated with i.v. injection of Compound 50b, (e) a group treated with i.v. injection of Compound 74a.
(§3) Treatment started on day twelve after SW480 cells transplantation and Compounds 50, 50a, 50b and 74a were administered i.v. once daily for five consecutive days at a dose of 10, 10, 10 and 50 mg/kg, respectively. Compound 50, 50a and 50b were prepared as a working solution of 1.5 mg/mL in a vehicle solution of 20% Cremaphor EL (Sigma, St. Louis, Miss., USA), and 10% Ethanol. Compound 74a was prepared as a working solution of 5 mg/mL in a vehicle solution of 5% Dextrose (Abbot Laboratories, QC, Canada). The negative control groups were treated with vehicle solution of 20% Cremaphor EL and 10% Ethanol alone.
(§4) The mice were weighed and the tumors measured on day 12 and every 2 to 3 days after treatment commenced. Observations continued for 23 days after initial tumor implantation. The changes in body weight and in the calculated tumor volume were plotted (FIGS. 9 and 10). Statistical analysis was performed using GraphPad Prism (GraphPad Software Inc., San Diego, Calif.). Two-way ANOVA was used to determine how the treatment affected tumor growth over time. Following the two-way ANOVA, post-tests were performed using the Benferroni method to determine the statistical difference between the mean tumor-size of the two groups being compared on every day that the tumors were measured.

Data set [11] deals with C33A human cervical carcinoma. Description: Cell viability, cellular ATP levels (Vialight HS). It is filed as cell-based. Conditions: C-33-A, Table 5, C33A, cervix, tumor, ATP levels 72 h post-treatment, read-out: IC50.
Excerpt: as §1
(§5) The selected tumor cell lines included C33A human cervical carcinoma and H1299 human non-small cell lung carcinoma (American Type Culture Collection, Manassas, Va., USA). The cell lines were cultured in RPMI 1640 media supplemented with 10% FBS (Hyclone, Logan, Vt., USA), 100 U/mL penicillin, 100 μg/mL streptomycin and 2 mM L-glutamine (Invitrogen, Carlsbad, Calif., USA). The cell lines were plated in 96-well microtitre plate at a density of 2–4×10^3 cells per well. After 16 hours, the cells were treated with various concentrations of compound 66, 67, 68, 69 and 70, respectively. Stock solutions of compounds 66, 67, 68, 69 and 70 were prepared in dimethyl sulfoxide at a concentration of 5 mM. Serial dilutions were prepared in RPMI, 10% FBS and 2% DMSO and then added to the cells. The total DMSO on the cells was 1%. […] The IC50s were determined using a best-fit sigmoidal dose response curve with variable slope.

The subject of data set [12] is H1299 human non-small cell lung carcinoma. The data set is described as follows: Cell viability, cellular ATP levels (Vialight HS). Type of data set: cell-based. Conditions: NCI-H1299, Table 5, H1299, NSCL-LC carcinoma, tumor, ATP levels 72 h post-treatment vs untreated cells, read-out: IC50.
Excerpt: as §1, §5

The subject of data set [13] is SW480 human colon carcinoma cancer cells. The data set is described as follows: SW480 colon carcinoma xenograft in SCID mice. It is filed as in vivo, CB17 SCID/SCID female mice. Conditions: i.v. 10 mg/kg once a day for five days. As for the experimental part:
The resultant mice are a model for a human having colon carcinoma cancer.
The SW480 human colon carcinoma cancer cells were maintained in RPMI supplemented with 10% inactivated fetal bovine serum and 1% penicillin-streptomycin-L-Glutamine, under 5% CO2 at 37° C., and passaged twice a week. The cells were grown at a confluency lower than 70% and then collected with Trypsin (Bio-Whittaker, Md., USA). The cells were then centrifuged and washed twice using phosphate buffered saline solution (PBS) and resuspended in PBS at 1×10^6 cells per 100 μl. Viability was examined by staining with Trypan Blue and only flasks with cell viability of greater than 95% were used for in vivo studies.
as §2, §3, §4

Structures are written as SMILES. A value given as a limit tells only on which side of the number the result lay.

T1 sequence (P05187 23-506 limits assumed): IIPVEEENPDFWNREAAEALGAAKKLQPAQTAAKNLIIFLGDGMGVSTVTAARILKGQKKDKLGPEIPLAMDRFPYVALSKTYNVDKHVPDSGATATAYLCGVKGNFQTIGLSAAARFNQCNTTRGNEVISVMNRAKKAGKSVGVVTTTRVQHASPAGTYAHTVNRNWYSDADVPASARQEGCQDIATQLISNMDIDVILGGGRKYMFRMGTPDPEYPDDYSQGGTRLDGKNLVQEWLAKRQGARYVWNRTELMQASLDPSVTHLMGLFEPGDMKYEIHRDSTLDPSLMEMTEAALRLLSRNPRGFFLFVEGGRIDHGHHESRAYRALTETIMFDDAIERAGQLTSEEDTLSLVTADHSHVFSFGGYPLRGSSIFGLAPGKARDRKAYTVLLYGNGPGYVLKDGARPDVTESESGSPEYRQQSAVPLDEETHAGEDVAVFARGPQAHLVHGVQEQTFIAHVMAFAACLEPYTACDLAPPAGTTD

Broadly, the solubility is how much of the substance goes into solution per volume. Turning to `COc1ccc2c(c1)C1(C)C=CC(=O)C(C)(C)C1=C(OP(=O)(O)O)C2=O` (racemic) [Compound 74], in data set [1], the “Conversion of pro-drug into drug Compound 50” value is listed as “convert a fraction of the pro-drug”. Further, the solubility in [2] was not below 10000 µg/mL.

The term IC50 denotes the concentration at which inhibition is half-maximal. For `COc1ccc2c(c1)[C@@]1(C)C=CC(=O)C(C)(C)C1=C(O)C2=O` [Compound 50a], the IC50 in data set [3] amounted to 2300 nM; in data set [4] it was 1200 nM; in data set [5], 370 nM; in data set [6], 660 nM; in data set [7], 630 nM; in data set [8], 1700 nM. The IC50 turned out to be 970 nM in data set [9], 500 nM in [11] and 550 nM in [12]. Moreover, the “Change in body weight” value in data set [10] is on record as “non-significant change in body weight”. The “Tumor growth compared to vehicle” value in data set [13] is reported as “significant reduction (p<0.001)”.

As for `COc1ccc2c(c1)[C@]1(C)C=CC(=O)C(C)(C)C1=C(O)C2=O` [Compound 50b], the IC50 stood at 2100 nM in data set [3]; 1200 nM in data set [4]; 350 nM in data set [5]; 250 nM in data set [6]; 580 nM in data set [7]; 1300 nM in data set [8]. Also, the half-inhibitory concentration (IC50) stood at 770 nM in data set [9], 450 nM in data set [11] and 230 nM in data set [12]. Besides, the “Change in body weight” value in data set [10] is listed as “non-significant change in body weight”. Also, in data set [13], the “Tumor growth compared to vehicle” value is recorded as “significant reduction (p<0.001)”.
